Results on six compounds are retold here after US11117900B2 (Vertex Pharmaceuticals Incorporated, priority 2012, dated 2021).

full-length ATR, sequence (Q13535 whole entry): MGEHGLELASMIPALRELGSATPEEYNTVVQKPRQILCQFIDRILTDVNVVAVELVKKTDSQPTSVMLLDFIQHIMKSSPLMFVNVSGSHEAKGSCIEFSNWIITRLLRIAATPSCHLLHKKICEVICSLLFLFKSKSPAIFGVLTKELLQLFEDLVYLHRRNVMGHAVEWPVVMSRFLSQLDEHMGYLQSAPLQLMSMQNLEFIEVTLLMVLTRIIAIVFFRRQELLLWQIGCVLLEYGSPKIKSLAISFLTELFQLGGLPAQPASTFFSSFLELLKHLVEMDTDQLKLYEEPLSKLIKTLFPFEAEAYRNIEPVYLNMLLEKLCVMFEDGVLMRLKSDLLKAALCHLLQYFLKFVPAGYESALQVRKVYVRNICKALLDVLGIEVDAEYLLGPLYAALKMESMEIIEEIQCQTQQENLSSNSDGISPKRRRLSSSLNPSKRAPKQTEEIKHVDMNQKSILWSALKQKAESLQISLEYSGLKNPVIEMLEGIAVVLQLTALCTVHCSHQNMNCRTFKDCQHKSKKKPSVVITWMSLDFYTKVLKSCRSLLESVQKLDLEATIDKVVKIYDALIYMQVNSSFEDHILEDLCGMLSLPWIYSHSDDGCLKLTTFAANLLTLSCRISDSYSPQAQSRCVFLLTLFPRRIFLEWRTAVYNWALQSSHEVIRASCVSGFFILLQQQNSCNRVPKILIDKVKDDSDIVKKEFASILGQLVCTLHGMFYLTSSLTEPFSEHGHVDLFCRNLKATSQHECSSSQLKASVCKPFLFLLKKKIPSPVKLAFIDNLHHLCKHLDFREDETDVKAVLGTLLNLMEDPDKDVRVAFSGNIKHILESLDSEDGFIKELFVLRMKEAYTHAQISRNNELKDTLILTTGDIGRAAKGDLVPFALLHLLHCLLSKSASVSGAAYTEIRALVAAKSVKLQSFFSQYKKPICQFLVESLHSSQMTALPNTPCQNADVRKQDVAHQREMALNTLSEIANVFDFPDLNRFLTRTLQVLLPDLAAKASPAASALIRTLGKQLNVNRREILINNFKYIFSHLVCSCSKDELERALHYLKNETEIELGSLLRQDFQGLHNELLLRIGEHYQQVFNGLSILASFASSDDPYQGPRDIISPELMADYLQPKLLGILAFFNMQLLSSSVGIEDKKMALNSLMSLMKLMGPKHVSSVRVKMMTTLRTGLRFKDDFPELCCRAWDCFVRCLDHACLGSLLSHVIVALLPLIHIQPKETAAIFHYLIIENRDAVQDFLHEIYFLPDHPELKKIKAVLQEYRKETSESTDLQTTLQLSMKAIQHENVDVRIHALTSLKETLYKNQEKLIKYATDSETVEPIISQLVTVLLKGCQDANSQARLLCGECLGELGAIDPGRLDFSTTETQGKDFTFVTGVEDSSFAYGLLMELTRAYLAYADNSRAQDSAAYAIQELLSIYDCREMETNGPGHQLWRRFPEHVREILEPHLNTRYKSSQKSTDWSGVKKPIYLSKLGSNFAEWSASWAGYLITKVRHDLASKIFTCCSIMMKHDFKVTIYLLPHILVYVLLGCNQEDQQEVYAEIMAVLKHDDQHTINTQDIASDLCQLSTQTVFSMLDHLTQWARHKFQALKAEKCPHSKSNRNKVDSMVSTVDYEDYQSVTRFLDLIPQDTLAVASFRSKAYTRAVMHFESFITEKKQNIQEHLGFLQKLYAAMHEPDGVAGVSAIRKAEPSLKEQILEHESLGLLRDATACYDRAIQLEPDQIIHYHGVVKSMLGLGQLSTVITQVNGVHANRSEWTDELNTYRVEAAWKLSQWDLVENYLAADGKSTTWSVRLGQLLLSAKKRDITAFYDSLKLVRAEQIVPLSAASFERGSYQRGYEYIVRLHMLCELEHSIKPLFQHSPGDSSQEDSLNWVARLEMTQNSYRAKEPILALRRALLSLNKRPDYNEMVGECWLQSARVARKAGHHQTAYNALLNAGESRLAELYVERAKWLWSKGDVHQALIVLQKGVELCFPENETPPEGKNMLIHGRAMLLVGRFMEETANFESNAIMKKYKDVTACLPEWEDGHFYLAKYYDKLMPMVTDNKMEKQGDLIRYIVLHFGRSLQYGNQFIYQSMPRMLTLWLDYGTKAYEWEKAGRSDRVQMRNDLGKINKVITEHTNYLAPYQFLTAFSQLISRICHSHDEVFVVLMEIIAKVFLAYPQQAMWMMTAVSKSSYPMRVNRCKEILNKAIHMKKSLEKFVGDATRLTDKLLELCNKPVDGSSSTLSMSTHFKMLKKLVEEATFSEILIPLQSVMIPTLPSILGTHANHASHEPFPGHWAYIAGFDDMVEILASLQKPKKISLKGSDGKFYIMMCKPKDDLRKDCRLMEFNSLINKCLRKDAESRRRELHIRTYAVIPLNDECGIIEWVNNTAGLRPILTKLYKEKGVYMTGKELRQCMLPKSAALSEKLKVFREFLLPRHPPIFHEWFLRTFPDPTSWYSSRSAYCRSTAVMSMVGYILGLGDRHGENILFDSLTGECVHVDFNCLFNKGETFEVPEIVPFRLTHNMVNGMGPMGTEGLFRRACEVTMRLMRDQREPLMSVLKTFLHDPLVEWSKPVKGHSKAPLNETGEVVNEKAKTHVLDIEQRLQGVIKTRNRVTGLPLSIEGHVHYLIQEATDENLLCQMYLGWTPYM

One assay deals with full-length ATR (Homo sapiens (Human), UniProt Q13535). Put plainly: ATR inhibition assay (radioactive-phosphate incorporation). In kind it is biochemical. Particulars: Ki(app), 5 nM full-length ATR, 10 μM ATP, 25° C. How it is done:
Compounds were screened for their ability to inhibit ATR kinase using a radioactive-phosphate incorporation assay. Assays were carried out in a mixture of 50 mM Tris/HCl (pH 7.5), 10 mM MgCl2 and 1 mM DTT. Final substrate concentrations were 10 μM [γ-33P]ATP (3 mCi 33P ATP/mmol ATP, Perkin Elmer) and 800 μM target peptide ([…]) (SEQ ID NO:1).
Assays were carried out at 25° C. in the presence of 5 nM full-length ATR. An assay stock buffer solution was prepared containing all of the reagents listed above, with the exception of ATP and the test compound of interest. 13.5 μL of the stock solution was placed in a 96 well plate followed by addition of 2 μL of DMSO stock containing serial dilutions of the test compound (typically starting from a final concentration of 15 μM with 3-fold serial dilutions) in duplicate (final DMSO concentration 7%). The plate was pre-incubated for 10 minutes at 25° C. and the reaction initiated by addition of 15 μL [γ-33P]ATP (final concentration 10 μM).
The reaction was stopped after 24 hours by the addition of […] phosphoric acid containing 2 mM ATP. […]
After removing mean background values for all of the data points, Ki(app) data were calculated from non-linear regression analysis of the initial rate data using the Prism software package (GraphPad Prism version 3.0 cx for Macintosh, GraphPad Software, San Diego Calif., USA).
As for `Nc1nn2cc(F)cnc2c1C(=O)Nc1cnccc1OC1CC[S+]([O-])CC1` (stereo not shown) [I-O-44, 2-amino-6-fluoro-N-(4-((1-oxidotetrahydro-2H-thiopyran-4-yl)oxy)pyridin-3-yl)pyrazolo[1,5-a]pyrimidine-3-carboxamide], the Ki fell in the range of 10 to 1000 nM.

The next assay has as its system HCT116 colorectal cancer cells. Put plainly: Cisplatin sensitization assay (96 h MTS cell viability).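 Further: compound concentration needed to lower the IC50 of Cisplatin alone by a set fold.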 The assay is classed as cell-based. Particulars: Cisplatin sensitization value. The procedure, abridged:
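The MTS viability read, after 1 h with reagent, followed 96 h of co-treatment at 37° C. in 5% CO2. Both compound and cisplatin were titrated 2-fold from a 10 μM top final concentration in a complete concentration matrix on HCT116 cells. Scores +++/++/+ reflect cisplatin sensitization value ranges.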
With `Nc1nn2cc(F)cnc2c1C(=O)Nc1cnccc1OC1CC[S+]([O-])CC1` (stereo not shown) [I-O-44, 2-amino-6-fluoro-N-(4-((1-oxidotetrahydro-2H-thiopyran-4-yl)oxy)pyridin-3-yl)pyrazolo[1,5-a]pyrimidine-3-carboxamide], the “Cisplatin Sensitization Assay” value is listed as “++ (Compounds with a Cisplatin sensitization value >0.02 μM but <0.2 μM are marked with “++.”)”.

With `Nc1nn2cc(F)cnc2c1C(=O)Nc1cncc(F)c1N1CCC(CN2CCCC2=O)CC1` [I-N-213, 2-amino-6-fluoro-N-(5-fluoro-4-(4-((2-oxopyrrolidin-1-yl)methyl)piperidin-1-yl)pyridin-3-yl)pyrazolo[1,5-a]pyrimidine-3-carboxamide], the “Cisplatin Sensitization Assay” value was “+++ (Compounds with a Cisplatin sensitization value of <0.02 μM are marked with “+++.”)”.

For `Nc1nn2cc(Cl)cnc2c1C(=O)Nc1cnccc1N1CCN2CCC[C@@H]2C1` [I-N-65, (R)-2-amino-6-chloro-N-(4-(hexahydropyrrolo[1,2-a]pyrazin-2(1H)-yl)pyridin-3-yl)pyrazolo[1,5-a]pyrimidine-3-carboxamide], the “Cisplatin Sensitization Assay” value is “+ (Compounds with a Cisplatin sensitization value >0.2 μM but <5 μM are marked with “+.”)”.

As to `Nc1nn2cc(F)cnc2c1C(=O)Nc1cnccc1N1CCCCCC1` [I-N-264, 2-amino-N-(4-(azepan-1-yl)pyridin-3-yl)-6-fluoropyrazolo[1,5-a]pyrimidine-3-carboxamide], the “Cisplatin Sensitization Assay” value is “+ (Compounds with a Cisplatin sensitization value >0.2 μM but <5 μM are marked with “+.”)”.

As for `Nc1nn2cc(F)cnc2c1C(=O)Nc1cnccc1N1CCN(C2COC2)CC1` [I-N-1, 2-amino-6-fluoro-N-(4-(4-(oxetan-3-yl)piperazin-1-yl)pyridin-3-yl)pyrazolo[1,5-a]pyrimidine-3-carboxamide], the “Cisplatin Sensitization Assay” value is listed as “++ (Compounds with a Cisplatin sensitization value >0.02 μM but <0.2 μM are marked with “++.”)”.

As to `Nc1nn2cc(F)cnc2c1C(=O)Nc1cncc(F)c1N1CCCC1` [I-N-246, 2-amino-6-fluoro-N-(5-fluoro-4-(pyrrolidin-1-yl)pyridin-3-yl)pyrazolo[1,5-a]pyrimidine-3-carboxamide], the “Cisplatin Sensitization Assay” value is given as “++ (Compounds with a Cisplatin sensitization value >0.02 μM but <0.2 μM are marked with “++.”)”.
